Data reported in patent publication EP0305184A1, “Pyrimidines or their pharmaceutically acceptable salts thereof” (MITSUI PHARMACEUTICALS, INC., priority 1987, dated 1989).
Where “and” joins values, the source holds several entries; their conditions need not be identical. Equal entries are not always repeated. Where two headings read alike, the source gives them in different places.

How the values were obtained:
Acute toxicity = type: in vivo; settings: in vivo, mouse, 24 hours after administration
Method: (§1) The acute toxicity of the compounds of the invention was examined by the following method.
(§2) Male ddy-strain 5-week old mice and male Wistar-strain 8 week old rats, five per group, were used as experimental animals. Each of the compounds was dissolved in saline and administered perorally (p.o.) or intraperitoneally (i.p.), and the toxicity of the compound was assessed 24 hours after the administration.

mouse = test: Acute toxicity; type: in vivo; settings: p.o., 24 hours after administration
Method: as §1, §2

[1] = tested on: rats having the lesioned nigral dopaminergic nerve cells; test: Methamphetamine-induced rotational movement after 6-hydroxydopamine lesion and fetal dopamine cell transplantation; type: in vivo, female Wistar rats
Method: Nigral dopaminergic nerve cells at the left side of the brain of 4-week old female Wistar rats (body weight 100 g) were lesioned by injecting a very small quantity of 6-hydroxydopamine. […] Upon administration of methamphethamine (5 mg/kg, i.p.) to the rats having the lesioned nigral dopaminergic nerve cells, they began rotational movement toward the lesioned side.
After two weeks from the destruction by the administration of the drug, portions of the truncus corporis callosi containing dopamine cells (i. e., substantia nigra and the tagmentum at the abdomen side) were cut from the brain of a fetal rat of 14 to 17 days of age, cut finely, and treated with trypsin. Then, the extracted tissues were incubated at 37°C for 30 minutes, and the tissues were subjected to pipetting to form a suspension. Five microliters of the suspension was transplanted each into two sites of the caudate nucleus of the lesioned side (10 microliters in total, about 10⁵ cells).
Each of the compounds (I) in a dose of 100 mg/kg (i.p.) was administered every day over two weeks from the day of transplantation. The rotational movements induced by administration of methamphetamine were examined 2 weeks and 1 week before, and 2 weeks and 4 weeks after, the transplantation and the administration of the drug. The number of rotational movements within one minute was counted at intervals of 10 minutes after the administration of methamphetamine, and the total number of rotational movements counted six times was averaged to find a mean number of the rotational movements.

[2] = tested on: rats with crushed sciatic nerves; test: Curative effect on rats with crushed sciatic nerves; type: in vivo, male Wistar rats; settings: i.p. once a day, Compound 118 30 mg/kg, Mecobalamin 0.5 mg/kg, mean ± S.E.; for Rate of recovery in muscle weight (%): soleus muscle, crushed side/normal side
Method: The curing effect of the compound (I) of the invention was tested on rats having crushed sciatic nerves as a model of peripheral nervous disorder using (1) a change in the action of the hind paw with the crushed sciatic nerves and (2) a change in the weight of the muscle as an index of the course of degeneration and regeneration of peripheral nerves.
In the experiment, male Wistar rats (6 weeks old), seven per group, were used. The sciatic nerves were crushed by a method similar to the method of Yamatsu et al. (see Kiyomi Yamatsu, Takenori Kaneko, Akifumi Kitahara and Isao Ohkawa, Journal of Japanese Pharmacological Society, 72, 259-268 (1976) and the method of Hasegawa et al. (see Kazuo Hasegawa, Naoji Mikuni and Yutaka Sakai, Journal of Japanese Pharmacological Society, 74 721-734 (1978). Specifically, under anesthesia with pentobarbital (40 mg/kg, i.p.), the left side sciatic nerve was exposed at the femur and that site of the exposed sciatic nerve which was 5 mm to the center from the branched part between the N. tibialis and the N. suralis was crushed using a modified artery, klomme, having a width of 2 mm and a gap of 0.1 mm. After the operation, the rats were assigned to the test groups at random.
Compound No. 118 was selected as the compound (I) of the invention and intraperitoneally administered to the rats once a day from the day of operation to the 22nd day. A group to which mecobalamin (made by Gedeon Richter Ltd.) was administered and a group to which 0.9 % saline was administered were used as controls. The following items were measured with the lapse of time (on the lst, 4th, 7th, 10th, 14th, 17th, 21st, and 23rd days after the crushing of the sciatic nerves).
By a method similar to the method of Hasegawa [Hasegawa, K., Experientia, 34, 750-751 (1978)], the distance between the first and fifth digits of the hind paw was measured.
The ratio of the measured distance to the normal distance was calculated and expressed in percentage (%).
It is known that the removal of a nerve or its disorder causes atrophy of the muscle which is under its control, and the atrophy is gradually cured by re-control by the nerve. For this reason, a change in the weight of the muscle, which is quantitative, was selected as an index. Twenty-three days after the operation, the soleus muscles of both sides of paws were extracted under anesthesia with pentobarbital, and their weights were measured. The ratio of the weight of the soleus muscle on the crushed side to that of normal side was calculated and expressed in percentage (%).

[3] = tested on: mice with nerve disorder induced by mercury poisoning; test: T-shaped maze learning and memory of mice with mercury poisoning; type: in vivo, Male BalbC strain mice; settings: 102 69.5, 116 76.9 mg/kg.ip/day; for running time: mean ± SE, after MMC; for Number of mice which ran to the safety area within 5 seconds: numerator: at least 8 of ten runs within 5 seconds, denominator: mice tested, after MMC 6 mg/kg/day
Method: Male BalbC strain mice, 7 weeks old, were first caused to learn a T-shaped maze three times in a week so that they run straight from a starting point to a safety area. Then, methylmercury chloride (MMC for short) was administered orally in a dose of 6 mg/kg/day for 6 days. A group of mice to which saline was administered in a dose of 0.1 ml/10 g/day was used as a control group. Beginning with the day next to the day of administering MMC, compounds Nos. 102 and 116 were intraperitoneally administered over 10 days in a dose of 69.5 mg/kg/day and 76.9 mg/kg/day, respectively, so as to make the mole numbers of the compounds equal. On the sixth day after administration of the drug (namely, on the 12th day after start of the experiment), learning of the T-shaped maze was resumed, and the running behaviors of the mice were observed. The number of mice which could be experimented in the T-shaped maze on the 10th and 11th days after the resumption (21st and 22nd days after the start of the experiment) was counted and expressed as a denominator. The number of mice which ran to the safety area within 5 seconds at least 8 times out of ten trial runnings was counted and expressed as a numerator. The decrease in the number of the test animals was due to death by MMC poisoning. The time (seconds) required for the animals to run to the safety area was measured, and the mean ± standard error (SE) was calculated.

[4] = ip, i.p., read-out: Estimated LD₅₀ (mg/kg, i.p.)
[5] = po, p.o., read-out: Estimated LD₅₀ (mg/kg, p.o.)

SMILES: CC1CCN(c2ncc3c(n2)N(C)C(=O)C3)CC1 [Compound 175]
- LD50 at 24 h (Acute toxicity; [4]): 500 to 1000 mg/kg

SMILES: CN1Cc2nc(N3CCCC3)ncc2C1=O [Compound 216]
- LD50 at 24 h (Acute toxicity; [5]): > 550 mg/kg
- Number of dead animals/number of animals tested (mouse; Dose 550 mg/kg): 0/5

SMILES: CC(C)Nc1ncc2c(n1)N(C)C(=O)C2.O=C(O)/C=C\C(=O)O [Compound 104, 2-iso-Propylamino-5,6-dihydro-7-methyl-6-oxo(7H)pyrrolo[2,3-d]pyrimidine maleate]
- Number of rotational movements of rats and average values thereof (mean ±S.D.) ([1]; 2W after transplantation, 100 mg/kg (i.p.) every day over two weeks, maleate, 100 mg/kg): 2.0±3.2 and 3.1±3.8
- Number of rotational movements of rats and average values thereof (mean ±S.D.) ([1]; -1W (before transplantation and drug administration, baseline), maleate): 10.8±3.8 and 10.4±5.2
- Number of rotational movements of rats and average values thereof (mean ±S.D.) ([1]; -2W (before transplantation and drug administration, baseline), maleate): 12.3±3.7 and 10.1±6.1

SMILES: CCN(CC)C(=O)N1CCN(c2ncc3c(n2)N(C)C(=O)C3)CC1 [Compound 132, 2-Diethylaminocarbonylpiperazino-5,6-dihydro-7-methyl-oxo(7H)pyrrolo[2,3-d]pyrimidine]
- LD50 at 24 h (Acute toxicity; [5]): > 1000 mg/kg
- Number of dead animals/number of animals tested (mouse; Dose 1000 mg/kg): 1/5

SMILES: CN1C(=O)Cc2cnc(N3CCCC3)nc21 [Compound 112]
- LD50 at 24 h (Acute toxicity; [5]): > 1000 mg/kg
- Number of dead animals/number of animals tested (mouse; Dose 1000 mg/kg): 0/5

SMILES: CN1Cc2nc(N3CCCCC3)ncc2C1=O [Compound 218]
- LD50 at 24 h (Acute toxicity; [5]): > 550 mg/kg
- Number of dead animals/number of animals tested (mouse; Dose 550 mg/kg): 0/5

SMILES: CN1CCN(c2ncc3c(n2)N(C)C(=O)C3)CC1 [Compound 138]
- LD50 at 24 h (Acute toxicity; [4]): 250 to 500 mg/kg
- LD50 at 24 h (Acute toxicity; [5]): > 1000 mg/kg
- Number of dead animals/number of animals tested (mouse; Dose 1000 mg/kg): 0/5

SMILES: CN1C(=O)Cc2cnc(N3CCOCC3)nc21 [Compound 122]
- LD50 at 24 h (Acute toxicity; [5]): > 1000 mg/kg
- Number of dead animals/number of animals tested (mouse; Dose 1000 mg/kg): 1/5

SMILES: CN(C)c1ncc2c(n1)N(C)C(=O)C2 [Compound 108]
- LD50 at 24 h (Acute toxicity; [5]): > 1000 mg/kg
- Number of dead animals/number of animals tested (mouse; Dose 1000 mg/kg): 2/5

SMILES: CN1C(=O)Cc2cnc(N3CCSCC3)nc21 [Compound 126]
- LD50 at 24 h (Acute toxicity; [5]): > 1000 mg/kg
- Number of dead animals/number of animals tested (mouse; Dose 1000 mg/kg): 0/5

SMILES: CN1C(=O)Cc2cnc(N3CCCCC3)nc21 [Compound 118]
- Number of rotational movements of rats and average values thereof (mean ±S.D.) ([1]; 2W after transplantation, 100 mg/kg (i.p.) every day over two weeks): 1.9±3.2
- Number of rotational movements of rats and average values thereof (mean ±S.D.) ([1]; -1W (before transplantation and drug administration, baseline)): 13.9±7.4 and 10.8±4.9
- Number of rotational movements of rats and average values thereof (mean ±S.D.) ([1]; -2W (before transplantation and drug administration, baseline)): 9.1±5.6
- Number of rotational movements of rats and average values thereof (mean ±S.D.) ([1]; column headed 3W, footnote: * Data at 2 W, 100 mg/kg (i.p.) every day over two weeks): *5.5±7.2
- LD50 at 24 h (Acute toxicity; [4]): 500 to 1000 mg/kg
- LD50 at 24 h (Acute toxicity; [5]): > 1000 mg/kg
- Number of dead animals/number of animals tested (mouse; Dose 1000 mg/kg): 0/5
- Rate of recovery of the interdigit distance (%) ([2]; 21st day): 79.8±2.5 %
- Rate of recovery of the interdigit distance (%) ([2]; 23rd day): 87.9±3.3 %
- Rate of recovery in muscle weight (%) ([2]; 23rd day): 59.6±2.8 %

SMILES: CC(C)Nc1ncc2c(n1)N(C)C(=O)C2.Cl [Compound 102, 2-iso-Propylamino-5,6-dihydro-7-methyl-6-oxo(7H)pyrrolo[2,3-d]pyrimidine hydrochloride]
- running time ([3]; 10th day after resumption): 2.1 ± 0.2 s
- Number of mice which ran to the safety area within 5 seconds ([3]; 10th day after resumption): 6/6
- running time ([3]; 11th day after resumption): 3.0 ± 0.6 s
- Number of mice which ran to the safety area within 5 seconds ([3]; 11th day after resumption): 6/6
- LD50 at 24 h (Acute toxicity; [5]): > 1000 mg/kg
- Number of dead animals/number of animals tested (mouse; Dose 1000 mg/kg): 0/5

SMILES: C/C1=C2/[N-][C@H]([C@H](CC(N)=O)[C@@]2(C)CCC(=O)NC[C@@H](C)OP(=O)([O-])O[C@H]2[C@@H](O)[C@@H](n3cnc4cc(C)c(C)cc43)O[C@@H]2CO)[C@]2(C)N=C(/C(C)=C3N=C(/C=C4N=C1[C@@H](CCC(N)=O)C\4(C)C)[C@@H](CCC(N)=O)[C@]\3(C)CC(N)=O)[C@@H](CCC(N)=O)[C@]2(C)CC(N)=O.[CH3-].[Co+3] [Mecobalamin, reference compound]
- Rate of recovery of the interdigit distance (%) ([2]; 21st day): 79.1±2.6 %
- Rate of recovery of the interdigit distance (%) ([2]; 23rd day): 88.3±4.0 %
- Rate of recovery in muscle weight (%) ([2]; 23rd day): 55.0±3.5%
